Blank lines part the entries; values can stand above or below the molecule they belong to. Calls of active or inactive are those of the source. The rule behind the calls is not given here.
Columns and labels:
[1] = molecular target: T1, Protein kinase C zeta type (Homo sapiens, UniProt Q05513); experiment: Inhibition of recombinant full-length human aPKCzeta using CREBtide as substrate incubated for 3 hrs in presence of ATP by Kinase Glo luminescent assay
T1 sequence (Q05513 whole entry): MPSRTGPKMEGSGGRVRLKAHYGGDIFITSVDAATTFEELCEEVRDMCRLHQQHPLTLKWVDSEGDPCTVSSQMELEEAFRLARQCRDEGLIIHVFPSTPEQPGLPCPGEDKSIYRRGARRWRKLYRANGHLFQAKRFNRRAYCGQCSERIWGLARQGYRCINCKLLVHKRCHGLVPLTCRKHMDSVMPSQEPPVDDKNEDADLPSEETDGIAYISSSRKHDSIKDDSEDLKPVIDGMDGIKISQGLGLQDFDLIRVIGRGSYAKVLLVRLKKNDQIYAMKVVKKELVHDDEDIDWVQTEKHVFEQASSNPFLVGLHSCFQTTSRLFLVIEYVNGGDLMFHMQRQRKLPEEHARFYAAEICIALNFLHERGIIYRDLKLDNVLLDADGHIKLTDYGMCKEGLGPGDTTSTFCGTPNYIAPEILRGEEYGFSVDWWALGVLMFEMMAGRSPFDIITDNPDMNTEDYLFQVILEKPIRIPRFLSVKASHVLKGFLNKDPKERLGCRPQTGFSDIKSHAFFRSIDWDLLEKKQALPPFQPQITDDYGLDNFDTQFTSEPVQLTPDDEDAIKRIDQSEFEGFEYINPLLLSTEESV

[2] = Inhibition of VEGF-induced permeability in BREC cells incubated for 2 hrs; assay type: functional, cell-based, Bos taurus
Bos taurus [3] = species on record: Bos taurus; experiment: Inhibition of VEGF-induced permeability in BREC cells at 0.01 uM incubated for 2 hrs; assay type: functional, cell-based
[4] = Cytotoxicity against […] BREC cells at 0.03 to 1 uM; assay type: cell-based
Bos taurus [5] = species on record: Bos taurus; experiment: Inhibition of VEGF-induced permeability in BREC cells at 1 uM incubated for 2 hrs; assay type: functional, cell-based
[6] = molecular target: T2, Protein kinase C iota type (Homo sapiens, UniProt P41743); experiment: Inhibition of recombinant full-length human aPKCiota using CREBtide as substrate incubated for 3 hrs in presence of ATP by kinase Glo luminescent assay
T2 sequence (P41743 whole entry): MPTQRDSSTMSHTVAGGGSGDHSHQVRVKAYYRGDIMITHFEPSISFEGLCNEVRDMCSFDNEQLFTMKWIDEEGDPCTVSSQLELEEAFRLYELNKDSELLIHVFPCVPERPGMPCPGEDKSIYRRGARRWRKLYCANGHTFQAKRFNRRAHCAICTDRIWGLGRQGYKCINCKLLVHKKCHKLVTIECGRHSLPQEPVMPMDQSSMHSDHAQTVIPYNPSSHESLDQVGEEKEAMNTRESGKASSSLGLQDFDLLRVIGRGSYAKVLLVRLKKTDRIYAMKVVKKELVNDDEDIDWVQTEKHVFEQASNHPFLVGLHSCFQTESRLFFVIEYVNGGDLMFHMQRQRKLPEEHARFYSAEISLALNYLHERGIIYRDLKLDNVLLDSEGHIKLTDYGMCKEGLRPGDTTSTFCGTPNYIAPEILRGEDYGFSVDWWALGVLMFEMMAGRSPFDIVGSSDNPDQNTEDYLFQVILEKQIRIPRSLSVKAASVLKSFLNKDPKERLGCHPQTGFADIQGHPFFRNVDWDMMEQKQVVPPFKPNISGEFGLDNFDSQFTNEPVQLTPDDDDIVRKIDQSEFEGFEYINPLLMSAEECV

[7] = molecular target: T1, Protein kinase C zeta type; experiment: Inhibition of recombinant full-length human aPKCzeta in presence of ATP at Km concentration by radiometric assay
[8] = molecular target: T2, Protein kinase C iota type; experiment: Inhibition of recombinant full-length human aPKCiota in presence of ATP at Km concentration by radiometric assay
Bos taurus [9] = species on record: Bos taurus; experiment: Inhibition of VEGF-induced permeability in BREC cells at 0.01 to 1.0 uM incubated for 2 hrs; assay type: functional, cell-based
[10] = molecular target: Protein kinase C beta type (Homo sapiens) (UniProt P05771); experiment: Inhibition of PKCbeta1 (unknown origin) at 5 uM by radiometric kinase assay
Homo sapiens [11] = species on record: Homo sapiens; experiment: Inhibition of PKA (unknown origin) at 5 uM by radiometric kinase assay
[12] = molecular target: Rho-associated protein kinase 2 (Homo sapiens) (UniProt O75116); experiment: Inhibition of ROCK2 (unknown origin) at 5 uM by radiometric kinase assay
[13] = Inhibition of PKA (unknown origin) by radiometric kinase assay; parameters: species or system Homo sapiens
Bos taurus [14] = species on record: Bos taurus; experiment: Inhibition of VEGF-induced permeability in BREC cells in presence of Y-27632; assay type: functional, cell-based
HEK293 [15] = experiment: Inhibition of TNFalpha-induced NFkappaB activation in HEK293 cells at 2.5 to 10 uM preincubated for 2 hrs followed by TNFalpha stimulation by luciferase assay; assay type: cell-based; details: Homo sapiens
[16] = Inhibition of TNFalpha-induced NFkappaB activation in HEK293 cells preincubated for 2 hrs followed by TNFalpha stimulation by luciferase assay; assay type: cell-based; details: Homo sapiens
HEK293 [17] = experiment: Cytotoxicity against HEK293 cells assessed as effect on cell survival by WST-1 assay; assay type: cell-based; details: human
Rattus norvegicus [18] = experiment: Inhibition of VEGF/TNFalpha-induced retinal vascular permeability in Long-Evans rat at 1 or 3 uM administered intravitreally followed by FITC-BSA, iv injection 3 hrs post drug dose and measured after 2 hrs by spectrophotometric method; assay type: functional, organism-based
Rattus norvegicus [19] = experiment: Inhibition of VEGF/TNFalpha-induced retinal vascular permeability in Long-Evans rat at 3 uM administered intravitreally followed by FITC-BSA, iv injection 3 hrs post drug dose and measured after 2 hrs by spectrophotometric method relative to control; assay type: functional
Rattus norvegicus [20] = experiment: Effect on retinal function in overnight dark-adapted Long-Evans rat assessed as A-wave or B-wave amplitude at 3 uM administered intravitreally 3 to 5 hrs prior to exposure to a 0.1 cd.s/m2 to 10 cd.s/m2 test flash by electroretinography; assay type: ADME, organism-based; details: in vivo, topical_or_ocular
[21] = Microsomal stability in CD1 mouse liver microsomes assessed as half life at 1 uM in presence of beta-NADPH measured upto 60 mins by LC-MS/MS analysis; assay type: ADME, Microsome; details: 1 h
[22] = Cmax in CD1 mouse plasma at 20 mg/kg, po measured up to 24 hrs; assay type: ADME, organism-based; parameters: dose 20 mg/kg, route oral; details: in vivo
[23] = Tmax in CD1 mouse plasma at 20 mg/kg, po measured up to 24 hrs; assay type: ADME, organism-based; details: in vivo
[24] = AUC in CD1 mouse plasma at 10 mg/kg, iv measured up to 24 hrs; assay type: ADME, organism-based; parameters: dose 10 mg/kg, time < 24 hr, route intravenous; details: in vivo
[25] = AUC in CD1 mouse plasma at 20 mg/kg, po measured up to 24 hrs; assay type: ADME, organism-based; parameters: time < 24 hr, dose 20 mg/kg, route oral; details: in vivo
[26] = Terminal elimination half life in CD1 mouse plasma at 10 mg/kg, iv measured up to 24 hrs; assay type: ADME, organism-based; details: in vivo
[27] = Terminal elimination half life in CD1 mouse plasma at 20 mg/kg, po and measured up to 24 hrs; assay type: ADME, organism-based; details: in vivo
[28] = Oral bioavailability in CD1 mouse plasma at 20 mg/kg measured up to 24 hrs; assay type: ADME, organism-based; details: in vivo
[29] = Ratio of drug level in CD-1 mouse brain to plasma at 10 mg/kg, iv after 4 hrs by LCMS analysis; assay type: ADME, organism-based
[30] = Ratio of drug level in CD-1 mouse eye to plasma at 10 mg/kg, iv after 4 hrs by LCMS analysis; assay type: ADME, organism-based
[31] = Ratio of drug level in CD-1 mouse eye to brain at 10 mg/kg, iv after 4 hrs by LCMS analysis; assay type: ADME, organism-based; details: in vivo
[32] = Ratio of drug level in CD-1 mouse eye to brain at 20 mg/kg, po after 4 hrs by LCMS analysis; assay type: ADME, organism-based; details: in vivo
Homo sapiens [33] = species on record: Homo sapiens; experiment: Selectivity ratio of IC50 for inhibition of recombinant full-length human aPKCzeta using CREBtide as substrate to IC50 for of recombinant full-length human aPKCiota using CREBtide as substrate
[34] = Drug level in iv dosed CD-1 mouse eye after 24 hrs by LCMS analysis; assay type: ADME, organism-based; details: read-out: Drug uptake
Bos taurus [35] = species on record: Bos taurus; experiment: Inhibition of VEGF-induced permeability in BREC cells at 3 uM incubated for 2 hrs; assay type: functional, cell-based
[36] = molecular target: T1, Protein kinase C zeta type; experiment: Inhibition of recombinant full-length human aPKCzeta expressed in Sf21 insect cells using 5FAM-ERMRPRKRQGSVRRRV-NH2 as substrate in presence of ATP after 60 mins by IMAP fluorescence polarization analysis

Chain of Rho-associated protein kinase 2 (Homo sapiens) (O75116 whole entry, looked up): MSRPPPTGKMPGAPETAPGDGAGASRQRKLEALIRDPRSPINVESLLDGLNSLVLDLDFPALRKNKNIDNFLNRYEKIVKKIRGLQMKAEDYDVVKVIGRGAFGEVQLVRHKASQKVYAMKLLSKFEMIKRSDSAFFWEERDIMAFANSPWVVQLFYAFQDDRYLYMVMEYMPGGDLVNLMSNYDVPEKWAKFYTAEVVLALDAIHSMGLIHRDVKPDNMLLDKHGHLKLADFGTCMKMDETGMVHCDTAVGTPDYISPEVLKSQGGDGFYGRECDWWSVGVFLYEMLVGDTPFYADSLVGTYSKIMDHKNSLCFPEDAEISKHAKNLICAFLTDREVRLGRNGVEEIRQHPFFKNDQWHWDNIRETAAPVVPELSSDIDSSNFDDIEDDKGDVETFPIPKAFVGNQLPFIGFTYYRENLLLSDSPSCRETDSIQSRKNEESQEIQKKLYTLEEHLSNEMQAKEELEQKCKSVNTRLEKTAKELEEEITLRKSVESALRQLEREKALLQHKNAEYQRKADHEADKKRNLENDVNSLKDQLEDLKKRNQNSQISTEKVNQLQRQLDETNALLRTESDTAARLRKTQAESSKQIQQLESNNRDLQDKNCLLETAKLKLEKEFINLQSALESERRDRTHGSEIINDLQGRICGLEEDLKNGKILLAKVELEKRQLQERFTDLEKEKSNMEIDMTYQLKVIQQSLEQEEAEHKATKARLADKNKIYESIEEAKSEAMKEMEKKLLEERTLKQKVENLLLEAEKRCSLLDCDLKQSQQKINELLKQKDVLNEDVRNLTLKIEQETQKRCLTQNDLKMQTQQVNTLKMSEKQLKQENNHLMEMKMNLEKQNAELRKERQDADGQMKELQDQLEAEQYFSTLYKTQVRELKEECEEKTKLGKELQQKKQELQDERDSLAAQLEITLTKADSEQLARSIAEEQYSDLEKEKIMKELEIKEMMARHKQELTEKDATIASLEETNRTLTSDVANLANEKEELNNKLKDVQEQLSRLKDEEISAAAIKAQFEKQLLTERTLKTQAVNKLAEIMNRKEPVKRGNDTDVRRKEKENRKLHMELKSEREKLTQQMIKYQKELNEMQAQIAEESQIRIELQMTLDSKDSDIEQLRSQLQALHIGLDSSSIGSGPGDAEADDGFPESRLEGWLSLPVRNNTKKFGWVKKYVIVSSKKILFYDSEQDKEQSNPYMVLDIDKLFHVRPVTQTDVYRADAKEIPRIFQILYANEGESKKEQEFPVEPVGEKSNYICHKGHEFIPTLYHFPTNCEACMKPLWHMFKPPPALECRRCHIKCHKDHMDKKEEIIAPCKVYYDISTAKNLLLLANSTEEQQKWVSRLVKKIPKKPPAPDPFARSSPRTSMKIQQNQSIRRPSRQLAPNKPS
Chain of Protein kinase C beta type (Homo sapiens) (P05771 2-671 limits assumed): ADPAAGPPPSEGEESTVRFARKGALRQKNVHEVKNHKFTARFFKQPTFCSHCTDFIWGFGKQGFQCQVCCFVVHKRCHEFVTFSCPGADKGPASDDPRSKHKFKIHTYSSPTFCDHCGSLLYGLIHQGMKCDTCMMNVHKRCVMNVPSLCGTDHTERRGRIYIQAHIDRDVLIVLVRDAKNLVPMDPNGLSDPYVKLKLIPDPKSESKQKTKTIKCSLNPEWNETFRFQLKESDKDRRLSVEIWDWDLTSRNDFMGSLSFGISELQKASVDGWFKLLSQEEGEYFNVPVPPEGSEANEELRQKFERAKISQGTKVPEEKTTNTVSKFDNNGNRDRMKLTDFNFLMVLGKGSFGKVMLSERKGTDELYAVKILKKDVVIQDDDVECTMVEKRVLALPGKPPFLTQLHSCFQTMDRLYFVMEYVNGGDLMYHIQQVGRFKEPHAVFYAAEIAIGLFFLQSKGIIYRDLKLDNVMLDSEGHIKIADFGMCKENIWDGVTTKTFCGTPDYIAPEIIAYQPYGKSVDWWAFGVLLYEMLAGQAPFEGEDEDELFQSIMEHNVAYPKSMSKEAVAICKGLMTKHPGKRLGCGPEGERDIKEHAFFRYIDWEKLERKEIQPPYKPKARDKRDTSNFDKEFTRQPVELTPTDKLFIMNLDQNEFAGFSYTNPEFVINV

IC50 [1]: 420 nM
SMILES: NCCN1CCN(c2nc(-c3ccncc3)nc3sc4c(c23)CCCC4)CC1

EC50 [2]: Not Active
SMILES: c1cc(-c2nc(N3CCNCC3)c3c4c(sc3n2)CCCC4)ccn1
inhibition (Bos taurus [3]): inactive
Activity [4]: Toxic
inhibition (Bos taurus [5]): inactive

IC50 [1]: 520 nM
EC50 ([2]; read-out: EC50): 71 nM
IC50 [6]: 70 nM
IC50 [7]: 1640 nM
IC50 [8]: 4080 nM
inhibition [10]: Active
inhibition (Homo sapiens [11]): Active
inhibition [12]: Active
IC50 [13]: 500 nM
EC50 [16]: 6650 nM
t1/2 [21]: > 1 h
Cmax [22]: 488 ng/mL
Tmax [23]: 7 h
AUC [24]: 4373 ng·h/mL
AUC [25]: 6762 ng·h/mL
beta t1/2 [26]: 2.77 h
beta t1/2 [27]: 7.83 h
F [28]: 81.7%
Ratio [29]: 2.3
Kp at 4 h [30]: 2.9
Ratio [31]: 1.3
Ratio [32]: 2
Ratio IC50 (Homo sapiens [33]): 7.5
concentration at 24 h [34]: 375 ng/g
SMILES: NCC1CCN(c2nc(-c3ccncc3)nc3sc4c(c23)CCCC4)CC1
inhibition (Bos taurus [9]): Active
inhibition (Bos taurus [14]): Active
inhibition (HEK293 [15]): Active
Activity (HEK293 [17]): Non-Toxic
inhibition (Rattus norvegicus [18]): Active
inhibition (INH) (Rattus norvegicus [19]): 100%
Activity (Rattus norvegicus [20]): Non-Toxic

EC50 ([2]; read-out: EC50): 300 nM
SMILES: CN(C)C1CCN(c2nc(-c3ccncc3)nc3sc4c(c23)CCCC4)CC1

IC50 [1]: 11100 nM
SMILES: c1cc(-c2nc(NCCN3CCNCC3)c3c4c(sc3n2)CCCC4)ccn1

IC50 [1]: 2400 nM
EC50 [2]: Not Active
SMILES: OC1CCN(c2nc(-c3ccncc3)nc3sc4c(c23)CCCC4)CC1
inhibition (Bos taurus [35]): inactive

IC50 [36]: 3700 nM
SMILES: CN1CCN(c2nc(-c3ccncc3)nc3sc4c(c23)CCCC4)CC1

EC50 ([2]; read-out: EC50): 300 nM
SMILES: NC1CCN(c2nc(-c3ccncc3)nc3sc4c(c23)CCCC4)CC1

IC50 [1]: 1150 nM
EC50 [2]: Not Active
SMILES: c1cc(-c2cc(N3CCNCC3)c3c4c(sc3n2)CCCC4)ccn1
inhibition (Bos taurus [5]): inactive
